What all share (assay): spectrophotometric GST assay, steady state
Common to all, as to assay type: biochemical
What all share (conditions): co-substrate GSH; pH and temperature not given; read-out: K m ^CDNB

The target in assay [1] is T1, LmGSTE5 (Locusta migratoria, UniProt V9Q3X9).
T1 construct: gene GSTe5; full-length ORF in pET28a, E. coli BL21(DE3), His-tag Ni-NTA purified
T1 sequence (V9Q3X9 1-221): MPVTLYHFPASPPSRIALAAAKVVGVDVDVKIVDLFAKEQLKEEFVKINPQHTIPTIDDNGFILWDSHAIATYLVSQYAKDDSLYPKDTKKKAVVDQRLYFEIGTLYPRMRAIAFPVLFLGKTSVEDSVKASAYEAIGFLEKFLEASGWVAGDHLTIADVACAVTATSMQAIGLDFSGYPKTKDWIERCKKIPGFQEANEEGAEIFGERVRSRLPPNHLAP
An excerpt: spectrophotometric GST assay, steady state on LmGSTE5

For assay [2], the target named is T2, LmGSTO1 (Locusta migratoria, UniProt V9Q3Y6).
T2 construct: gene GSTo1; full-length ORF in pET28a, E. coli BL21(DE3), His-tag Ni-NTA purified
T2 sequence (V9Q3Y6 1-242): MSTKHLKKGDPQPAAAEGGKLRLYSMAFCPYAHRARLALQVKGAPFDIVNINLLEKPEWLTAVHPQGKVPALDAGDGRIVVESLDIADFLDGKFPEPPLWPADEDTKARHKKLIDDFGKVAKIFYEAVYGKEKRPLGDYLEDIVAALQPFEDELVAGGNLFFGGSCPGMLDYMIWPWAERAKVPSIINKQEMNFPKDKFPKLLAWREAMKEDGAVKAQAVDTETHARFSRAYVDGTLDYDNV
An excerpt:
spectrophotometric GST assay, steady state on LmGSTO1

The target in assay [3] is T3, LmGSTD2 (Locusta migratoria, UniProt V9Q3Y3).
T3 construct: gene GSTd2; full-length ORF in pET28a, E. coli BL21(DE3), His-tag Ni-NTA purified
T3 sequence (V9Q3Y3 1-214): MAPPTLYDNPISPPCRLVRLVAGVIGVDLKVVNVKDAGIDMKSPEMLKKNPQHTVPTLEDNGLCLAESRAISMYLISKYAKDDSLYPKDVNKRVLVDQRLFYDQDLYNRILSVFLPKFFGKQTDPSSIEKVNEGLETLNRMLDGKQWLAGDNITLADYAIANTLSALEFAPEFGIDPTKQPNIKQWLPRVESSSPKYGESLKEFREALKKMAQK
An excerpt: spectrophotometric GST assay, steady state on LmGSTD2

The target of assay [4] is T4, LmGSTS7 (Locusta migratoria, UniProt F4YUJ6).
T4 construct: full-length ORF in pET28a, E. coli BL21(DE3), His-tag Ni-NTA purified
T4 sequence (F4YUJ6 1-204): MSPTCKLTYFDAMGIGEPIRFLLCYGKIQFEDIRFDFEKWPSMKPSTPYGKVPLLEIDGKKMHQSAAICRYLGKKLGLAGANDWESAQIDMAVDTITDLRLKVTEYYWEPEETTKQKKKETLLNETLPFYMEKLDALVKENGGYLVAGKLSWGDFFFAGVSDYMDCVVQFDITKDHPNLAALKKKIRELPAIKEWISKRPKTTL
The source says: spectrophotometric GST assay, steady state on LmGSTS7

For assay [5], the target named is T5, LmGSTT1 (Locusta migratoria, UniProt F4YUJ7).
T5 construct: full-length ORF in pET28a, E. coli BL21(DE3), His-tag Ni-NTA purified
T5 sequence (F4YUJ7 1-231): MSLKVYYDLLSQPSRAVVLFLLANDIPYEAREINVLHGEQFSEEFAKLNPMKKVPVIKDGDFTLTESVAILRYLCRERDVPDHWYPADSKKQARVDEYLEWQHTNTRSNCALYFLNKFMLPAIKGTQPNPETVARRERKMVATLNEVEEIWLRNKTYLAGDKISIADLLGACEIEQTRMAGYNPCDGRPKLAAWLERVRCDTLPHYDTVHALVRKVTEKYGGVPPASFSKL
An excerpt:
spectrophotometric GST assay, steady state on LmGSTT1

The target of assay [6] is T6, LmGSTD4 (Locusta migratoria, UniProt V9Q2Q3).
T6 construct: gene GSTd4; full-length ORF in pET28a, E. coli BL21(DE3), His-tag Ni-NTA purified
T6 sequence (V9Q2Q3 1-218): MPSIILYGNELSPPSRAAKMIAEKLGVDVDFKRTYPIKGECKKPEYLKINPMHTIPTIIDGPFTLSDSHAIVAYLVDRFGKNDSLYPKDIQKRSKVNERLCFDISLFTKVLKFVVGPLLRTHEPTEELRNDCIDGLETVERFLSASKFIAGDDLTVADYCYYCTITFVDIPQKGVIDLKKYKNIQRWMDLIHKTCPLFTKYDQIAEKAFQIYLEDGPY
The source says:
spectrophotometric GST assay, steady state on LmGSTD4

In assay [7] the target is T7, LmGSTD1 (Locusta migratoria, UniProt E7BTM5).
T7 construct: full-length ORF in pET28a, E. coli BL21(DE3), His-tag Ni-NTA purified
T7 sequence (E7BTM5 1-218): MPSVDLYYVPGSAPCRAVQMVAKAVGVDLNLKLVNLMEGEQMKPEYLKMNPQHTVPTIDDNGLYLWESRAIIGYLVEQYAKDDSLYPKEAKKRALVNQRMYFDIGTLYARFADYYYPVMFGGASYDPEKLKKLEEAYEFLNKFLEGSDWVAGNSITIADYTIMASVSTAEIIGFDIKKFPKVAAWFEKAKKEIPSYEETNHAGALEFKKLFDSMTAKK
An excerpt: spectrophotometric GST assay, steady state on LmGSTD1

For assay [8], the target named is T8, LmGSTO2 (Locusta migratoria, UniProt I3QKS2).
T8 construct: gene GSTo2; full-length ORF in pET28a, E. coli BL21(DE3), His-tag Ni-NTA purified
T8 sequence (I3QKS2 1-245): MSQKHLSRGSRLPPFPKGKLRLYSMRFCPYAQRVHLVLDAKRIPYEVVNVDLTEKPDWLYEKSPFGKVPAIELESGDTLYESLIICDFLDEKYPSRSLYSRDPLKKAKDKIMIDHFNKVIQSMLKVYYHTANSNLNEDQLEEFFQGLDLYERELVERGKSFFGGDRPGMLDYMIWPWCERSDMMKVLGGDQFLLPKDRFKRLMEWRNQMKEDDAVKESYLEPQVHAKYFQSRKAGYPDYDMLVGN
The source says:
spectrophotometric GST assay, steady state on LmGSTO2

Assay [9] concerns the target T9, LmGSTS8 (Locusta migratoria, UniProt V9Q487).
T9 construct: gene GSTs8; full-length ORF in pET28a, E. coli BL21(DE3), His-tag Ni-NTA purified
The source says:
spectrophotometric GST assay, steady state on LmGSTS8

The text below walks through data of article PMC4259467, “Molecular Cloning, Characterization and Positively Selected Sites of the Glutathione S-Transferase Family from Locusta migratoria” (PLoS ONE, 2014).

T9 sequence (V9Q487 1-204): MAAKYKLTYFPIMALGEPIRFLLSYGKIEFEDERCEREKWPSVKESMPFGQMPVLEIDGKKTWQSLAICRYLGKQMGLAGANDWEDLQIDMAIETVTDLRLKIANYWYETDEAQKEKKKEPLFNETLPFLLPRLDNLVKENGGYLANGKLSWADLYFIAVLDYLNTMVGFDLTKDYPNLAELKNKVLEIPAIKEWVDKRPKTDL

In the case of `O=[N+]([O-])c1ccc(Cl)c([N+](=O)[O-])c1` [CDNB], the Km in assay [1] came to 26 ± 2 µM; in [2] it was 228 ± 45 µM; in assay [3], 923 ± 49 µM; in assay [4], 46 ± 1 µM; in assay [5], 260 ± 14 µM; in assay [6], 15 ± 2 µM. Also, the Km in [7] was 139 ± 8 µM; in assay [8] it was 841 ± 138 µM; in [9], 100 ± 6 µM.
